In US20260285855A1, “HETEROARYL DERIVATIVES AS DDRS INHIBITORS” (CHIESI FARMACEUTICI S.P.A., priority 2023, published 2026):

How the values were obtained:
[1] = biological target: T1, DDR2 (Homo sapiens, UniProt Q16832); test: LanthaScreen Europium Kinase Binding assay, DDR2; conditions: 5 nM DDR2, 10 nM Kinase Tracer 178, 1 h at rt; Ki from IC50 by Cheng-Prusoff; read-out: Ki DDR2
T1 construct: purchased Life Technologies
T1 sequence (Q16832 22-855): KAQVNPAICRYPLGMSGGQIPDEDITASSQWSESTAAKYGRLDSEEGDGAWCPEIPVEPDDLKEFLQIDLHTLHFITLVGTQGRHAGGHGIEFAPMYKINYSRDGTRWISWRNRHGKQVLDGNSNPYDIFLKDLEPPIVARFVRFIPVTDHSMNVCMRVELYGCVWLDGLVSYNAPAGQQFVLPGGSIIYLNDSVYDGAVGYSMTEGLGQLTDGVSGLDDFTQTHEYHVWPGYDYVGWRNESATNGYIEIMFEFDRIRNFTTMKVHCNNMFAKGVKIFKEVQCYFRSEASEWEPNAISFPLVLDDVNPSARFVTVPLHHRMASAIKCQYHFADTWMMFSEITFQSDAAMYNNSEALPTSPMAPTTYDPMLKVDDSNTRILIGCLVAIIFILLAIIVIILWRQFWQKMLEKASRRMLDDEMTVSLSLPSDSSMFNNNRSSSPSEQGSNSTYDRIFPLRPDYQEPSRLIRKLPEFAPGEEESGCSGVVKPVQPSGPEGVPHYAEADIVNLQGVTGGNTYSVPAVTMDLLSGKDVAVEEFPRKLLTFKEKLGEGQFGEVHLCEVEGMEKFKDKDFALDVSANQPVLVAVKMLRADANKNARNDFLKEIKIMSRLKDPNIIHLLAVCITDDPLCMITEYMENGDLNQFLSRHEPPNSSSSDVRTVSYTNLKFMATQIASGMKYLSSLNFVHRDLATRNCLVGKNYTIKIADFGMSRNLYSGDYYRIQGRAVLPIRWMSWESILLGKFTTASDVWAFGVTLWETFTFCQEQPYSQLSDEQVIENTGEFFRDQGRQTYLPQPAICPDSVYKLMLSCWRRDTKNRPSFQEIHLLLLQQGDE
Procedure: (§1) DDR1 and DDR2 binding assays were performed using Life Technologies LanthaScreen™ Europium Kinase Binding assay. […] IC50 values were determined in GraphPad Prism 7.0 software, using 4 parameter model: log (inhibitor) vs. response. IC50 values were converted in Ki using the Cheng-Prusoff equation (Ki-IC50/(1+ [Tracer]/Kd).

[2] = biological target: T2, DDR1 (Homo sapiens, UniProt Q08345); test: LanthaScreen Europium Kinase Binding assay, DDR1; conditions: 5 nM DDR1, 20 nM Kinase Tracer 178, 1 h at rt; Ki from IC50 by Cheng-Prusoff; read-out: Ki DDR1
T2 construct: purchased Carna Biosciences
T2 sequence (Q08345 19-913): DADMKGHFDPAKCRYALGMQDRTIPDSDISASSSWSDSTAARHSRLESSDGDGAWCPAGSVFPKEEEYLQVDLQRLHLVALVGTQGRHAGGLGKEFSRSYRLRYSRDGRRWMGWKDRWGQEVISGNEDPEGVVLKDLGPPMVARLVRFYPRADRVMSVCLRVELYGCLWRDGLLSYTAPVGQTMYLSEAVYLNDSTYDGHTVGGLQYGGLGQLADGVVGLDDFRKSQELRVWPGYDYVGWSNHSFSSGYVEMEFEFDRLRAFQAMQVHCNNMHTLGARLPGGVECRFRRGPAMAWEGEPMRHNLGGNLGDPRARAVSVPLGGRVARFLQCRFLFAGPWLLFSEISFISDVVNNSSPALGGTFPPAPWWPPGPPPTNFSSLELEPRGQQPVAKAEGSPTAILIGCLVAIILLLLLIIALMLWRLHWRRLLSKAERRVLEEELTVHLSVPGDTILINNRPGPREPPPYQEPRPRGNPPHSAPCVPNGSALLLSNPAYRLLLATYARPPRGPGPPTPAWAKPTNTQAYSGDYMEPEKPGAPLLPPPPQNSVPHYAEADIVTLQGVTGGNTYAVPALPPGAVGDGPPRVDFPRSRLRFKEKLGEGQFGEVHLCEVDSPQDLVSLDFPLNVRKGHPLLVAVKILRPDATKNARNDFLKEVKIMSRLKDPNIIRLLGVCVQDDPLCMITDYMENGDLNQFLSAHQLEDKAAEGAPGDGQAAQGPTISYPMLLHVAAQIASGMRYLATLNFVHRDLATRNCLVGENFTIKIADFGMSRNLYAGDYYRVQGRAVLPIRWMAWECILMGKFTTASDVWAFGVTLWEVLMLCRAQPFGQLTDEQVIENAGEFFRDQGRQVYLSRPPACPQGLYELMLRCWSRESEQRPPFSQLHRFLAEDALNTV
Procedure: as §1

Ki [1] | Ki [2] | Structure (SMILES)
5 to 25 nM | < 5 nM | COc1cc(C(F)(F)F)cc(NC(=O)N(C)C2CC3(C2)CN(C(=O)c2cnn4ccn(C)c24)C3)n1 [Example 256, 3-(6-methoxy-4-(trifluoromethyl)pyridin-2-yl)-1-methyl-1-(2-(1-methyl-1H-imidazo[1,2-b]pyrazole-7-carbonyl)-2-azaspiro[3.3]heptan-6-yl)urea]
5 to 25 nM | < 5 nM | CN(C(=O)Nc1cc(C(F)(F)F)cc(C(F)(F)F)c1)C1CC2(C1)CN(C(=O)c1cnn3ccn(C)c13)C2 [Example 257, 3-(3,5-bis(trifluoromethyl)phenyl)-1-methyl-1-(2-(1-methyl-1H-imidazo[1,2-b]pyrazole-7-carbonyl)-2-azaspiro[3.3]heptan-6-yl)urea]
25 to 100 nM | < 5 nM | CN(C(=O)Nc1cc(C(F)(F)F)cnn1)C1CC2(C1)CN(C(=O)c1cnn3ccccc13)C2 [Example 259, 1-methyl-1-(2-(pyrazolo[1,5-a]pyridine-3-carbonyl)-2-azaspiro[3.3]heptan-6-yl)-3-(5-(trifluoromethyl)pyridazin-3-yl)urea]
5 to 25 nM | < 5 nM | CCc1ccc(C(F)(F)F)cc1NC(=O)N(C)C1CC2(C1)CN(C(=O)c1cnn3ccn(C)c13)C2 [Example 264, 3-(2-ethyl-5-(trifluoromethyl)phenyl)-1-methyl-1-(2-(1-methyl-1H-imidazo[1,2-b]pyrazole-7-carbonyl)-2-azaspiro[3.3]heptan-6-yl)urea]
< 5 nM | < 5 nM | Cc1c(F)cc(NC(=O)N(C)C2CC3(C2)CN(C(=O)c2cnn4ccn(C)c24)C3)cc1C(F)(F)F [Example 265, 3-(3-fluoro-4-methyl-5-(trifluoromethyl)phenyl)-1-methyl-1-(2-(1-methyl-1H-imidazo[1,2-b]pyrazole-7-carbonyl)-2-azaspiro[3.3]heptan-6-yl)urea]
5 to 25 nM | < 5 nM | CN(C(=O)Nc1cncc(C(F)(F)C(F)(F)F)c1)C1CC2(C1)CN(C(=O)c1cnn3ccn(C)c13)C2 [Example 266, 1-methyl-1-(2-(1-methyl-1H-imidazo[1,2-b]pyrazole-7-carbonyl)-2-azaspiro[3.3]heptan-6-yl)-3-(5-(perfluoroethyl)pyridin-3-yl)urea]
< 5 nM | < 5 nM | CN(C(=O)Nc1cc(C(F)(F)F)cc(Cl)n1)C1CC2(C1)CN(C(=O)c1cnn3ccn(C)c13)C2 [Example 267, 3-(6-chloro-4-(trifluoromethyl)pyridin-2-yl)-1-methyl-1-(2-(1-methyl-1H-imidazo[1,2-b]pyrazole-7-carbonyl)-2-azaspiro[3.3]heptan-6-yl)urea]
< 5 nM | < 5 nM | Cc1ccc(C(F)(F)F)cc1NC(=O)OC1CC2(C1)CN(C(=O)c1cnn3ccn(C)c13)C2 [Example 270, 2-(1-methyl-1H-imidazo[1,2-b]pyrazole-7-carbonyl)-2-azaspiro[3.3]heptan-6-yl(2-methyl-5-(trifluoromethyl)phenyl)carbamate]
< 5 nM | < 5 nM | Cn1ccn2ncc(C(=O)N3CC4(CC(OC(=O)Nc5cc(C(C)(C)C(F)(F)F)on5)C4)C3)c12 [Example 271, 2-(1-methyl-1H-imidazo[1,2-b]pyrazole-7-carbonyl)-2-azaspiro[3.3]heptan-6-yl(5-(1,1,1-trifluoro-2-methylpropan-2-yl)isoxazol-3-yl)carbamate]
5 to 25 nM | < 5 nM | Cn1ccn2ncc(C(=O)N3CC4(CC(CC(=O)Nc5cncc(C(F)(F)F)c5)C4)C3)c12 [Example 274, 2-(2-(1-methyl-1H-imidazo[1,2-b]pyrazole-7-carbonyl)-2-azaspiro[3.3]heptan-6-yl)-N-(5-(trifluoromethyl)pyridin-3-yl)acetamide]

Second part, the compound before the results:

Structure (SMILES) | Ki [1] | Ki [2]
CN(C(=O)Nc1cc(C(F)F)ccn1)C1CC2(C1)CN(C(=O)c1cnn3ccsc13)C2 [Example 255, 3-(4-(difluoromethyl)pyridin-2-yl)-1-methyl-1-(2-(pyrazolo[5,1-b]thiazole-7-carbonyl)-2-azaspiro[3.3]heptan-6-yl)urea] | 5 to 25 nM | < 5 nM
Cc1nn(C)cc1-c1ccc2c(C(=O)N3CC4(CC(N(C)C(=O)Nc5cncc(C(F)(F)F)c5)C4)C3)cnn2c1 [Example 258, 1-(2-(6-(1,3-dimethyl-1H-pyrazol-4-yl)pyrazolo[1,5-a]pyridine-3-carbonyl)-2-azaspiro[3.3]heptan-6-yl)-1-methyl-3-(5-(trifluoromethyl)pyridin-3-yl)urea] | 5 to 25 nM | < 5 nM
COc1ccc(C(F)(F)F)cc1NC(=O)N(C)C1CC2(C1)CN(C(=O)c1ncnc3[nH]ccc13)C2 [Example 260, 1-(2-(7H-pyrrolo[2,3-d]pyrimidine-4-carbonyl)-2-azaspiro[3.3]heptan-6-yl)-3-(2-methoxy-5-(trifluoromethyl)phenyl)-1-methylurea] | 5 to 25 nM | < 5 nM
Cc1c(-c2ccc3c(C(=O)N4CC5(CC(N(C)C(=O)Nc6cncc(C(F)(F)F)c6)C5)C4)cnn3c2)cnn1C [Example 261, 1-(2-(6-(1,5-dimethyl-1H-pyrazol-4-yl)pyrazolo[1,5-a]pyridine-3-carbonyl)-2-azaspiro[3.3]heptan-6-yl)-1-methyl-3-(5-(trifluoromethyl)pyridin-3-yl)urea] | 5 to 25 nM | < 5 nM
COc1ncc(C(F)(F)F)cc1NC(=O)NC1CC2(C1)CN(C(=O)c1cnn3ccsc13)C2 [Example 262, 1-(2-methoxy-5-(trifluoromethyl)pyridin-3-yl)-3-(2-(pyrazolo[5,1-b]thiazole-7-carbonyl)-2-azaspiro[3.3]heptan-6-yl)urea] | 5 to 25 nM | < 5 nM
CN(C(=O)Nc1cc(C(F)(F)F)ccn1)C1CC2(C1)CN(C(=O)c1ncnc3ccsc13)C2 [Example 263, 1-methyl-1-(2-(thieno[3,2-d]pyrimidine-4-carbonyl)-2-azaspiro[3.3]heptan-6-yl)-3-(4-(trifluoromethyl)pyridin-2-yl)urea] | 5 to 25 nM | < 5 nM
Cc1cc(NC(=O)N(C)C2CC3(C2)CN(C(=O)c2ncnc4[nH]ccc24)C3)cc(C(F)(F)F)c1 [Example 268, 1-(2-(7H-pyrrolo[2,3-d]pyrimidine-4-carbonyl)-2-azaspiro[3.3]heptan-6-yl)-1-methyl-3-(3-methyl-5-(trifluoromethyl)phenyl)urea] | 5 to 25 nM | < 5 nM
O=C(Nc1cc(OC(F)(F)F)ccn1)OC1CC2(C1)CN(C(=O)c1cnn3ccsc13)C2 [Example 272, 2-(pyrazolo[5,1-b]thiazole-7-carbonyl)-2-azaspiro[3.3]heptan-6-yl(4-(trifluoromethoxy)pyridin-2-yl)carbamate] | < 5 nM | < 5 nM
O=C(Nc1cncc(C(F)(F)F)c1)OC1CC2(C1)CN(C(=O)c1cnn3ccsc13)C2 [Example 273, 2-(pyrazolo[5,1-b]thiazole-7-carbonyl)-2-azaspiro[3.3]heptan-6-yl(5-(trifluoromethyl)pyridin-3-yl)carbamate] | < 5 nM | < 5 nM
O=C(CC1CC2(C1)CN(C(=O)c1cnn3ccsc13)C2)Nc1cncc(OC(F)(F)F)c1 [Example 275, 2-(2-(pyrazolo[5,1-b]thiazole-7-carbonyl)-2-azaspiro[3.3]heptan-6-yl)-N-(5-(trifluoromethoxy)pyridin-3-yl)acetamide] | < 5 nM | < 5 nM
Cn1ccn2ncc(C(=O)N3CC4(CC(CC(=O)Nc5cc(OC(F)(F)F)ccc5F)C4)C3)c12 [Example 276, N-(2-fluoro-5-(trifluoromethoxy)phenyl)-2-(2-(1-methyl-1H-imidazo[1,2-b]pyrazole-7-carbonyl)-2-azaspiro[3.3]heptan-6-yl)acetamide] | < 5 nM | < 5 nM
Cn1ccn2ncc(C(=O)N3CC4(CC(CC(=O)Nc5cc(OC(F)(F)F)ccn5)C4)C3)c12 [Example 277, 2-(2-(1-methyl-1H-imidazo[1,2-b]pyrazole-7-carbonyl)-2-azaspiro[3.3]heptan-6-yl)-N-(4-(trifluoromethoxy)pyridin-2-yl)acetamide] | 5 to 25 nM | < 5 nM
Cc1ccc(OC(F)(F)F)cc1NC(=O)CC1CC2(C1)CN(C(=O)c1cnn3ccn(C)c13)C2 [Example 278, 2-(2-(1-methyl-1H-imidazo[1,2-b]pyrazole-7-carbonyl)-2-azaspiro[3.3]heptan-6-yl)-N-(2-methyl-5-(trifluoro-methoxy)phenyl)acetamide] | 5 to 25 nM | < 5 nM
